For 37 compounds, ED50 results are on record in patent US20240383882A1 (Ecstasy LLC, priority 2020, published 2024).

The first test deals with male C57BL/6 mice. Description: 55° C. warm-water tail-flick test (antinociception). Format: in vivo. To be noted: Mus musculus, sc, 0.5 h, compounds of Table I; s.c.; 30 min; 55° C. water; configuration tested as in Table II; read-out: ED50 (mg/kg) at 30 min on C57BL/6 mice in Warm-water Tail-flick Test. An outline of the steps: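 Subcutaneous dosing, then tail immersion in 55° C water at 30–120 min; latency normalized as 100×(test−control)/(20−control), using a 20 s cutoff, after excluding mice not responding within 2 s at baseline. Values expressed as ED50 (mg/kg).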
Background: Hot-plate and tail-flick tests time the reaction to a heat stimulus.
Turning to `Cc1ccc(S(=O)(=O)NC(c2ccccn2)C2(CCc3ccc(F)s3)CCN(C(C)(C)c3ccc(C)nc3)C2)cc1` (single isomer, unassigned) [Compound 321], the ED50 was at most 30 mg/kg.

Consider `Cc1ccc(C(C)(C)N2CCC(CCc3ccc(F)s3)(C(NS(C)(=O)=O)c3ccccn3)C2)cn1` (single isomer, unassigned) [Compound 319], for which the ED50 is at most 30 mg/kg.

Consider `CCOCC1(CCc2ccc(F)cc2)CCN(Cc2cncc(F)c2)C1` (single isomer, unassigned) [Compound 45], for which the ED50 was above 50 mg/kg.

With `Cc1ccc(C(C)(C)N2CCC(CCc3ccc(F)s3)(CN3CCOCC3)C2)cn1` (single isomer, unassigned) [Compound 106], the ED50 is at most 30 mg/kg.

For the compound `Cc1ccc(C(C)(C)N2CCC(CCc3cccs3)(c3nnc(C)s3)C2)cn1` (single isomer, unassigned) [Compound 24], the ED50 is at most 30 mg/kg.

For the compound `CCOC(C)C1(CCc2cccs2)CCN(C(C)(C)c2ccc(C)nc2)C1` (single isomer, unassigned) [Compound 5], the ED50 is at most 30 mg/kg.

With `Cc1ccc(C(C)(C)N2CCC(CCc3ccc(F)s3)(CNC(=O)Nc3ccccc3)C2)cn1` (single isomer, unassigned) [Compound 43], the ED50 was at most 30 mg/kg.

The same test, now with this note: Mus musculus; half maximal effective dose in mice; using one of: warm water tail-flick test, spared nerve injury, chronic constriction injury, or Complete Freund's adjuvant induced inflammatory pain (not stated which per compound); read-out: Biological Activity (ED50).
For the compound `CC(C)(c1ccc(S(C)(=O)=O)cc1)N1CC[C@@](CCc2ccc(F)cc2)(COCc2ccccc2)C1` [Compound 33, (R)-3-((benzyloxy)methyl)-3-(4-fluorophenethyl)-1-(2-(4-(methylsulfonyl)phenyl)propan-2-yl)pyrrolidine], the ED50 is above 50 mg/kg.

Turning to `CCOC[C@]1(CCc2ccc(C#N)cc2)CCN(C(c2cccnc2)c2cccnc2)C1` [Compound 10, (R)-4-(2-(1-(di(pyridin-3-yl)methyl)-3-(ethoxymethyl)pyrrolidin-3-yl)ethyl) benzonitrile], the ED50 was above 50 mg/kg.

In the case of `CC(C)(c1ccccn1)N1CC[C@@](CCc2ccc(C#N)s2)(C(=O)C(F)(F)F)C1` [Compound 154, (R)-5-(2-(1-(2-(pyridin-2-yl)propan-2-yl)-3-(2,2,2-trifluoroacetyl)pyrrolidin-3-yl)ethyl)thiophene-2-carbonitrile], the ED50 is above 50 mg/kg.

Turning to `CC(C)(c1ccccn1)N1CC[C@@](CCc2ccc(C#N)cc2)(CNC2(C(F)(F)F)COC2)C1` [Compound 202, (S)-4-(2-(1-(2-(pyridin-2-yl)propan-2-yl)-3-(((3-(trifluoromethyl)oxetan-3-yl)amino)methyl)pyrrolidin-3-yl)ethyl) benzonitrile], the ED50 is above 50 mg/kg.

Consider `CC(C)(c1ccccn1)N1CC[C@@](CCc2ccc(C#N)s2)(C(O)C(F)(F)F)C1` (single isomer, unassigned) [Compound 152, 5-(2-((R)-1-(2-(pyridin-2-yl)propan-2-yl)-3-((R or S)-2,2,2-trifluoro-1-hydroxyethyl)pyrrolidin-3-yl)ethyl)thiophene-2-carbonitrile], for which the ED50 was at most 30 mg/kg.

On to `CC(C)(c1ccccn1)N1CC[C@](CO)(CCc2cnc3ccccc3n2)C1` [Compound 184, (R)-(1-(2-(pyridin-2-yl)propan-2-yl)-3-(2-(quinoxalin-2-yl)ethyl)pyrrolidin-3-yl)methanol], for which the ED50 is above 50 mg/kg.

With `CC(C)(c1ccccn1)N1CC[C@](CCc2ccc(C#N)cc2)(C(O)C(F)(F)F)C1` (single isomer, unassigned) [Compound 223], the ED50 is above 50 mg/kg.

Turning to `COc1cccc(C(C)(C)N2CC[C@](CO)(CCc3ccc(C#N)cc3)C2)c1` [Compound 142, (R)-4-(2-(3-(hydroxymethyl)-1-(2-(3-methoxyphenyl)propan-2-yl)pyrrolidin-3-yl)ethyl) benzonitrile], the ED50 was above 50 mg/kg.

`CC(C)c1nc(C(C)(C)N2CC[C@@](CCc3ccc(C#N)cc3)(C3CCCO3)C2)cs1` (single isomer, unassigned) [Compound 30, 4-(2-((R)-1-(2-(2-isopropylthiazol-4-yl)propan-2-yl)-3-((R or S)-tetrahydrofuran-2-yl)pyrrolidin-3-yl)ethyl) benzonitrile]: the ED50 is above 50 mg/kg.

`Cc1ccc(N(C)N2CC[C@@](CO)(CCc3ccccc3)C2)cn1` [Compound 68]: the ED50 was above 50 mg/kg.

For `CC(C)(O)[C@@]1(CCc2ccc(C#N)cc2)CCN(C(c2cccnc2)c2cccnc2)C1` [Compound 63], the ED50 is above 50 mg/kg.

As to `CC(C)(c1ccc(Cl)cc1)N1CC[C@@](CCc2ccc(S(C)(=O)=O)cc2)(COCc2ccccc2)C1` [Compound 37, (R)-3-((benzyloxy)methyl)-1-(2-(4-chlorophenyl)propan-2-yl)-3-(4-(methylsulfonyl)phenethyl) pyrrolidine], the ED50 is above 50 mg/kg.

`CCOC[C@]1(CCc2ccc(C#N)cc2)CCN(C(C)c2ccnnc2)C1` (stereo partly drawn) [Compound 25, 4-(2-((3R)-3-(ethoxymethyl)-1-(1-(pyridazin-4-yl)ethyl)pyrrolidin-3-yl)ethyl)benzonitrile]: the ED50 is at most 30 mg/kg.

Turning to `Cc1ccc(C(C)(C)N2CC[C@@](CCc3ccc(F)cc3)(C(O)C(F)(F)F)C2)cn1` (single isomer, unassigned) [Compound 78], the ED50 is at most 30 mg/kg.

Consider `CC(C)(c1ccccn1)N1CC[C@@](CCc2ccc(C#N)cc2)(C(=O)NC2(C(F)(F)F)CC2)C1` [Compound 201, (R)-3-(4-cyanophenethyl)-1-(2-(pyridin-2-yl)propan-2-yl)-N-(1-(trifluoromethyl)cyclopropyl) pyrrolidine-3-carboxamide], for which the ED50 is at most 30 mg/kg.

As for `N#Cc1ccc(CC[C@]2(COCc3ccccc3)CCN(C(c3cccnc3)c3cccnc3)C2)cc1` (single isomer, unassigned) [Compound 72], the ED50 is above 50 mg/kg.

`CC(C)(c1ccc(F)cn1)N1CC[C@](CCc2ccc(C#N)cc2)(C(O)C(F)(F)F)C1` (single isomer, unassigned) [Compound 229, 4-(2-((S)-1-(2-(5-fluoropyridin-2-yl)propan-2-yl)-3-((R or S)-2,2,2-trifluoro-1-hydroxyethyl)pyrrolidin-3-yl)ethyl) benzonitrile]: the ED50 is above 50 mg/kg.

`CCOC(C(F)(F)F)[C@]1(CCc2ccc(C#N)cc2)CCN(C(C)(C)c2ccccn2)C1` (single isomer, unassigned) [Compound 52]: the ED50 is above 50 mg/kg.

In the case of `CC(C)(c1ccccn1)N1CC[C@](CO)(CCc2ccc3ccoc3c2)C1` [Compound 168, (R)-(3-(2-(benzofuran-6-yl)ethyl)-1-(2-(pyridin-2-yl)propan-2-yl)pyrrolidin-3-yl)methanol], the ED50 is at most 30 mg/kg.

As to `CCOC(C(F)(F)F)(C(F)(F)F)[C@]1(CCc2ccc(C#N)s2)CCN(C(C)(C)c2ccccn2)C1` [Compound 161, (R)-5-(2-(3-(2-ethoxy-1,1,1,3,3,3-hexafluoropropan-2-yl)-1-(2-(pyridin-2-yl)propan-2-yl)pyrrolidin-3-yl)ethyl)thiophene-2-carbonitrile], the ED50 is above 50 mg/kg.

Turning to `CC(C)(c1ccccn1)N1CC[C@@](CCc2ccc(C#N)cc2)(c2nn[nH]n2)C1` [Compound 182, (R)-4-(2-(1-(2-(pyridin-2-yl)propan-2-yl)-3-(2H-tetrazol-5-yl)pyrrolidin-3-yl)ethyl) benzonitrile], the ED50 is above 50 mg/kg.

`CSc1ccc(C(C)(C)N2CC[C@@](CCc3ccc(F)cc3)(COCc3ccccc3)C2)cc1` [Compound 40, (R)-3-((benzyloxy)methyl)-3-(4-fluorophenethyl)-1-(2-(4-(methylthio)phenyl)propan-2-yl)pyrrolidine]: the ED50 is above 50 mg/kg.

As to `COC[C@@]1(CCc2ccccc2)CCN(N(C)c2ccc(C)nc2)C1` (single isomer, unassigned) [Compound 69], the ED50 was above 50 mg/kg.

Turning to `CCOC(C(F)(F)F)(C(F)(F)F)[C@]1(/C=C/c2cnc3ccccc3n2)CCN(C(C)(C)c2ccc(C)nc2)C1` [Compound 187, (S,E)-2-(2-(3-(2-ethoxy-1,1,1,3,3,3-hexafluoropropan-2-yl)-1-(2-(6-methylpyridin-3-yl)propan-2-yl)pyrrolidin-3-yl)vinyl)quinoxaline], the ED50 is above 50 mg/kg.

As to `Cc1ccc(C(C)(C)N2CC[C@@](CCc3ccc(C#N)cc3)(C(O)(C(F)(F)F)C(F)(F)F)C2)cn1` [Compound 165, (R)-4-(2-(3-(1,1,1,3,3,3-hexafluoro-2-hydroxypropan-2-yl)-1-(2-(6-methylpyridin-3-yl)propan-2-yl)pyrrolidin-3-yl)ethyl) benzonitrile], the ED50 was at most 30 mg/kg.

Take `CC(C)(c1ccccn1)N1CC[C@](CO)(CCc2cnc(C(F)(F)F)nc2)C1` [Compound 190, (R)-(1-(2-(pyridin-2-yl)propan-2-yl)-3-(2-(2-(trifluoromethyl)pyrimidin-5-yl)ethyl)pyrrolidin-3-yl)methanol]: the ED50 is above 50 mg/kg.

With `CC(C)(c1ccccn1)N1CC[C@](/C=C/c2ccc(S(C)(=O)=O)cc2)(C2CCCO2)C1` (single isomer, unassigned) [Compound 218, 2-(2-((R)-3-((E)-4-(methylsulfonyl)styryl)-3-((R or S)-tetrahydrofuran-2-yl)pyrrolidin-1-yl)propan-2-yl)pyridine], the ED50 is above 50 mg/kg.

`COC(C(F)(F)F)(C(F)(F)F)[C@]1(COCc2ccccc2)CCN(C2(c3ncon3)COC2)C1` [Compound 24]: the ED50 was above 50 mg/kg.

As to `CC(C)(c1ccccn1)N1CC[C@](CO)(CCc2ccc(C#N)cc2F)C1` [Compound 111, (R)-3-fluoro-4-(2-(3-(hydroxymethyl)-1-(2-(pyridin-2-yl)propan-2-yl)pyrrolidin-3-yl)ethyl) benzonitrile], the ED50 is above 50 mg/kg.

Turning to `CC(C)(c1ccccn1)N1CC[C@@](CCc2ccc3nonc3c2)(C(O)C(F)(F)F)C1` (single isomer, unassigned) [Compound 176, (R or S)-1-((R)-3-(2-(benzo[c][1,2,5]oxadiazol-5-yl)ethyl)-1-(2-(pyridin-2-yl)propan-2-yl)pyrrolidin-3-yl)-2,2,2-trifluoroethan-1-ol], the ED50 is above 50 mg/kg.
